{
  "source": "PubChem BioAssay (NCI)",
  "experiment_in_all_cases": "inhibition of tumour cell growth, NCI panel, 48 h",
  "key": {"[1]": {"system": "TK-10 renal"}, "[2]": {"system": "RXF-631 renal"}, "[3]": {"system": "HT29 colon"}, "[4]": {"system": "XF 498 CNS"}, "[5]": {"system": "SNB-78 CNS"}, "[6]": {"system": "SK-MEL-5 melanoma"}, "[7]": {"system": "SN12C renal"}, "[8]": {"system": "RPMI-8226 leukemia"}, "[9]": {"system": "DMS 273 small cell lung"}, "[10]": {"system": "SF-295 CNS"}, "[11]": {"system": "SNB-19 CNS"}, "[12]": {"system": "OVCAR-5 ovarian"}, "[13]": {"system": "KM20L2 colon"}, "[14]": {"system": "SK-MEL-28 melanoma"}, "[15]": {"system": "MALME-3M melanoma"}, "[16]": {"system": "CCRF-CEM leukemia"}, "[17]": {"system": "NCI-H522 lung"}, "[18]": {"system": "A549 NSCLC"}, "[19]": {"system": "DMS 114 small cell lung"}, "[20]": {"system": "SF-539 CNS"}, "[21]": {"system": "HOP-92 NSCLC"}, "[22]": {"system": "HOP-18 NSCLC"}, "[23]": {"system": "SW-620 colon"}, "[24]": {"system": "RXF 393 renal"}, "[25]": {"system": "NCI-H226 lung"}, "[26]": {"system": "M14 melanoma"}, "[27]": {"system": "COLO 205 colon"}, "[28]": {"system": "OVCAR-3 ovarian"}, "[29]": {"system": "SF-268 CNS"}, "[30]": {"system": "ACHN renal"}, "[31]": {"system": "KM12 colon"}, "[32]": {"system": "OVCAR-4 ovarian"}, "[33]": {"system": "HOP-62 NSCLC"}, "[34]": {"system": "UACC-62 melanoma"}, "[35]": {"system": "HL-60(TB) leukemia"}, "[36]": {"system": "HCT-15 colon"}, "[37]": {"system": "786-0 renal"}, "[38]": {"system": "DLD-1 colon"}, "[39]": {"system": "K-562 leukemia"}, "[40]": {"system": "EKVX NSCLC"}, "[41]": {"system": "CAKI-1 renal"}, "[42]": {"system": "M19-MEL melanoma"}, "[43]": {"system": "U251 CNS"}, "[44]": {"system": "HCT-116 colon"}, "[45]": {"system": "OVCAR-8 ovarian"}, "[46]": {"system": "UO-31 renal"}, "[47]": {"system": "SNB-75 CNS"}, "[48]": {"system": "A498 renal"}, "[49]": {"system": "LXFL 529 NSCLC"}, "[50]": {"system": "NCI-H460 lung"}, "[51]": {"system": "LOX IMVI melanoma"}, "[52]": {"system": "UACC-257 melanoma"}, "[53]": {"system": "IGROV1 ovarian"}},
  "note": "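Protocol summary: plate cells (96-well), add compound at 5 concentrations, incubate 48 h, interpolate endpoints linearly. At the TGI there is no net growth.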",
  "data": [
    {"smiles": "CCCOc1ccc(/C=C\\c2cc(OC)c(OC)c(OC)c2)cc1", "values": [
      {"measurement": "TGI", "setting": "[1]", "value": "> 100", "unit": "µM"},
      {"measurement": "TGI", "setting": "[2]", "value": "> 100", "unit": "µM"},
      {"measurement": "TGI", "setting": "[3]", "value": "> 100", "unit": "µM"},
      {"measurement": "TGI", "setting": "[4]", "value": "> 100", "unit": "µM"},
      {"measurement": "TGI", "setting": "[5]", "value": "> 100", "unit": "µM"},
      {"measurement": "TGI", "setting": "[6]", "value": 40.7, "unit": "µM"},
      {"measurement": "TGI", "setting": "[7]", "value": "> 100", "unit": "µM"},
      {"measurement": "TGI", "setting": "[8]", "value": "> 100", "unit": "µM"},
      {"measurement": "TGI", "setting": "[9]", "value": "> 100", "unit": "µM"},
      {"measurement": "TGI", "setting": "[10]", "value": "> 100", "unit": "µM"},
      {"measurement": "TGI", "setting": "[11]", "value": "> 100", "unit": "µM"},
      {"measurement": "TGI", "setting": "[12]", "value": 60.9, "unit": "µM"},
      {"measurement": "TGI", "setting": "[13]", "value": "> 100", "unit": "µM"},
      {"measurement": "TGI", "setting": "[14]", "value": "> 100", "unit": "µM"},
      {"measurement": "TGI", "setting": "[15]", "value": "> 100", "unit": "µM"},
      {"measurement": "TGI", "setting": "[16]", "value": "> 100", "unit": "µM"},
      {"measurement": "TGI", "setting": "[17]", "value": "> 100", "unit": "µM"},
      {"measurement": "TGI", "setting": "[18]", "value": "> 100", "unit": "µM"},
      {"measurement": "TGI", "setting": "[19]", "value": "> 100", "unit": "µM"},
      {"measurement": "TGI", "setting": "[20]", "value": "> 100", "unit": "µM"},
      {"measurement": "TGI", "setting": "[21]", "value": "> 100", "unit": "µM"},
      {"measurement": "TGI", "setting": "[22]", "value": "> 100", "unit": "µM"},
      {"measurement": "TGI", "setting": "[23]", "value": "> 100", "unit": "µM"},
      {"measurement": "TGI", "setting": "[24]", "value": "> 100", "unit": "µM"},
      {"measurement": "TGI", "setting": "[25]", "value": "> 100", "unit": "µM"},
      {"measurement": "TGI", "setting": "[26]", "value": "> 100", "unit": "µM"},
      {"measurement": "TGI", "setting": "[27]", "value": "> 100", "unit": "µM"},
      {"measurement": "TGI", "setting": "[28]", "value": "> 100", "unit": "µM"},
      {"measurement": "TGI", "setting": "[29]", "value": "> 100", "unit": "µM"},
      {"measurement": "TGI", "setting": "[30]", "value": "> 100", "unit": "µM"},
      {"measurement": "TGI", "setting": "[31]", "value": 89.5, "unit": "µM"},
      {"measurement": "TGI", "setting": "[32]", "value": "> 100", "unit": "µM"},
      {"measurement": "TGI", "setting": "[33]", "value": "> 100", "unit": "µM"},
      {"measurement": "TGI", "setting": "[34]", "value": "> 100", "unit": "µM"},
      {"measurement": "TGI", "setting": "[35]", "value": "> 100", "unit": "µM"},
      {"measurement": "TGI", "setting": "[36]", "value": "> 100", "unit": "µM"},
      {"measurement": "TGI", "setting": "[37]", "value": "> 100", "unit": "µM"},
      {"measurement": "TGI", "setting": "[38]", "value": "> 100", "unit": "µM"},
      {"measurement": "TGI", "setting": "[39]", "value": "> 100", "unit": "µM"},
      {"measurement": "TGI", "setting": "[40]", "value": "> 100", "unit": "µM"},
      {"measurement": "TGI", "setting": "[41]", "value": "> 100", "unit": "µM"},
      {"measurement": "TGI", "setting": "[42]", "value": "> 100", "unit": "µM"},
      {"measurement": "TGI", "setting": "[43]", "value": "> 100", "unit": "µM"},
      {"measurement": "TGI", "setting": "[44]", "value": "> 100", "unit": "µM"},
      {"measurement": "TGI", "setting": "[45]", "value": "> 100", "unit": "µM"},
      {"measurement": "TGI", "setting": "[46]", "value": "> 100", "unit": "µM"},
      {"measurement": "TGI", "setting": "[47]", "value": "> 100", "unit": "µM"},
      {"measurement": "TGI", "setting": "[48]", "value": "> 100", "unit": "µM"},
      {"measurement": "TGI", "setting": "[49]", "value": "> 100", "unit": "µM"},
      {"measurement": "TGI", "setting": "[50]", "value": "> 100", "unit": "µM"},
      {"measurement": "TGI", "setting": "[51]", "value": "> 100", "unit": "µM"},
      {"measurement": "TGI", "setting": "[52]", "value": "> 100", "unit": "µM"},
      {"measurement": "TGI", "setting": "[53]", "value": "> 100", "unit": "µM"}
    ]}
  ]
}
